# Data from patent publication US10730886B2, “Compound having effect of inhibiting platelet aggregation and salt thereof, and composition for preventing or treating thrombotic diseases, containing same” (SHIN POONG PHARMACEUTICAL CO., LTD., priority 2015, dated 2020).
# How the values were obtained:
# ICR mouse = details: male, in vivo, po, 15 mg/kg, 7 days
# Procedure: One hour after the last administration, the mice were anesthetized by breathing, and the 4 mm portion from the tail tip of the mice was cut. Then, the tail tip of the mice was immersed in a transparent 15-ml tube containing the pre-prepared 37° C. saline. The time when blood was not spread any more and the bleeding stopped was measured.
# [1] = system: carotid artery shear stress model; assay: Carotid artery shear stress model, amount of thrombus; type: in vivo, Sprague-Dawley rats; details: rat, 8 mg/kg oral, twice a day for 3 days after operation
# Procedure: Vehicle (0.5% methylcellulose), clopidogrel (8 mg/kg), aspirin (50 mg/kg) or a candidate substance was orally administered to male Sprague-Dawley rats (250 to 300 g). 2 hours after administration, the rats were anesthetized by ketamine/rompun (ketamine/xylazine) cocktail 0.1 ml/100 g. Except for the normal control group, the right cervical skin of the experimental animals was incised to expose the common carotid artery. A surgical tube with a length of 1 mm and an inside diameter of 0.58 mm was inserted into the exposed carotid artery and tied with a single thread. The exposed site and the operation site were treated with an anti-adhesion agent, and then sutured for the animals to recover. After the surgery, vehicle, clopidogrel, aspirin or a candidate substance was orally administered to the rats twice a day for 3 days. On the fourth day, 2 hours after the final administration, urethane (100 mg/300 μl/100 g) was administered intraperitoneally to the rats to induce anesthesia, and the operation site was opened to separate a total of 1 cm of the blood vessel, 5 mm above and 5 mm below the surgical tube. The separated blood vessel was perfused with 0.2 ml of 0.9% saline at 0.3 ml/min to remove the remaining blood, and then maintained in 1 ml of protein lysis buffer (NaOH 2 g, Na2CO3 0.1 g in 500 ml D.W). After collected, the blood vessel thrombus was double-boiled in boiling water together with the protein lysis buffer. 200 μl of the reaction solution (10 ml bicinchoninic acid solution+200 μl 4% aqueous solution of copper sulfate) was added to 10 μl of the heated thrombus, and the mixture was reacted at 37° C. for 30 minutes and quantified with an ELISA reader (562 nm).
# [2] = system: ADP-induced platelet aggregation, Human PRP; assay: ADP-induced platelet aggregation in human PRP (lumi-aggregometer); type: cell-based
# Procedure: To investigate whether the candidate substance has inhibition selectivity for shear-stress-induced platelet aggregation, which is by a physical stimulus, […] experiment was conducted by activating platelets with physiological agonists—i.e., thrombin, collagen and ADP—to study the inhibitory effect of the candidate substance.
# Human PRP (598.8 μl) was treated with 1.2 μl of the candidate substance per concentration (25, 100, 250 μM) and reacted at 37° C. for 3 minutes using a thermomixer. Then, PRP (495 μl) was put in the aggregometer cuvette and preincubated for 1 minute, followed by treatment with platelet aggregation-inducing reagent, thrombin (0.6-0.8 U/ml), collagen (2-5 μg/ml), or ADP (adenosine diphosphate, 15-20 μM) at the minimum concentration causing maximum aggregation. The degree of aggregation of the platelets was measured by a turbidity change using a lumi-aggregometer (Chrono-Log Co., USA). The turbidity of the PRP was considered as 0%, and the turbidity of the PPP was considered as 100%. During the measurement, the reaction mixture was continuously stirred at 1,000 rpm with a silicone-coated magnetic stir bar.
# Sprague-Dawley rats = assay: Bleeding side effect (tail bleeding time) after single oral administration; type: in vivo; details: rat, tail cut 1 hour after administration
# Procedure: Male Sprague-Dawley rats (250 to 300 g) were fasted overnight and then were orally administered with the candidate substances at each concentration. After 1 hour, the rats were anesthetized by intraperitoneal injection of urethane (1.25 g/kg). The 3 mm portion of the tail tip of the rats was cut and carefully wiped every 30 seconds. Bleeding time was measured in […] until no more blood was drawn, and when the bleeding lasted longer than 30 minutes, the bleeding time was recorded as 30 minutes.
compound,measurement,setting,value
"COC(=O)[C@H](c1ccccc1Cl)N1CCc2sccc2C1 [Clopidogrel, clopidogrel, reference compound]",Bleeding time,ICR mouse,35.4 ± 2.9 min
same,Bleeding time (min),ICR mouse,exceeded 35 min
same,"bleeding time delayed, times compared with the control group",ICR mouse,about 22 times
same,"Amount of thrombus (mg, Mean ± SEM)",[1],0.067 ± 0.004 mg
same,"Degree of platelet aggregation (%, Mean ± SEM)","[2]; ADP 15-20 μM, compound 40 μM",18.3 ± 3.4%
same,platelet aggregation compared with the group treated with ADP only,"[2]; positive control, 40 μM",platelet aggregation was inhibited
same,Bleeding time,Sprague-Dawley rats; 2.5 μM (so in the source),14.3 ± 1.6 min
same,Bleeding time,Sprague-Dawley rats; 25 μM (so in the source),26.8 ± 1.6 min
